#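 Values below derive from 48-hour exposures of cells grown in 96-well plates, with endpoints linearly interpolated between the two concentrations bracketing the appropriate inhibition level. TGI: total growth inhibition.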
# Key:
# Assay in all cases: NCI anticancer screen, dose series, 48 h
# [1] = system: OVCAR-3 ovarian
# [2] = system: IGROV1 ovarian
# [3] = system: TK-10 renal
# [4] = system: OVCAR-4 ovarian
# [5] = system: NCI-H23 lung
# [6] = system: SF-539 CNS
# [7] = system: U251 CNS
# [8] = system: SR leukemia
# [9] = system: RXF 393 renal
# [10] = system: M19-MEL melanoma
# [11] = system: OVCAR-5 ovarian
# [12] = system: SNB-19 CNS
# [13] = system: DLD-1 colon
# [14] = system: SW-620 colon
# [15] = system: HCT-116 colon
# [16] = system: NCI-H226 lung
# [17] = system: SF-295 CNS
# [18] = system: HCT-15 colon
# [19] = system: LOX IMVI melanoma
# [20] = system: SK-MEL-5 melanoma
# [21] = system: A549 NSCLC
# [22] = system: COLO 205 colon
# [23] = system: SN12C renal
# [24] = system: HL-60(TB) leukemia
# [25] = system: OVCAR-8 ovarian
# [26] = system: SF-268 CNS
# [27] = system: CCRF-CEM leukemia
# [28] = system: KM12 colon
# [29] = system: DMS 273 small cell lung
# [30] = system: UACC-257 melanoma
# [31] = system: SK-OV-3 ovarian
# [32] = system: SK-MEL-28 melanoma
# [33] = system: A498 renal
# [34] = system: LXFL 529 NSCLC
# [35] = system: HT29 colon
# [36] = system: K-562 leukemia
# [37] = system: NCI-H522 lung
# [38] = system: UO-31 renal
# [39] = system: MOLT-4 leukemia
# [40] = system: 786-0 renal
# [41] = system: M14 melanoma
# [42] = system: XF 498 CNS
# [43] = system: EKVX NSCLC
# [44] = system: SNB-78 CNS
# [45] = system: MALME-3M melanoma
# [46] = system: ACHN renal
# [47] = system: RPMI-8226 leukemia
# [48] = system: UACC-62 melanoma
# [49] = system: SNB-75 CNS
# [50] = system: HOP-18 NSCLC
# [51] = system: HOP-62 NSCLC
# [52] = system: KM20L2 colon
# [53] = system: DMS 114 small cell lung
# [54] = system: HCC-2998 colon
# [55] = system: NCI-H460 lung
# [56] = system: HOP-92 NSCLC
# [57] = system: CAKI-1 renal
# [58] = system: SK-MEL-2 melanoma
smiles,measurement,setting,value
COc1ccccc1N=Nc1c(-c2ccccc2)nn(C(=O)CC(=O)Nc2ccccc2Cl)c1-c1ccccc1,TGI,[1],> 100 µM
same,TGI,[2],> 100 µM
same,TGI,[3],> 100 µM
same,TGI,[4],> 100 µM
same,TGI,[5],> 100 µM
same,TGI,[6],> 100 µM
same,TGI,[7],> 100 µM
same,TGI,[8],> 100 µM
same,TGI,[9],> 100 µM
same,TGI,[10],> 100 µM
same,TGI,[11],> 100 µM
same,TGI,[12],> 100 µM
same,TGI,[13],> 100 µM
same,TGI,[14],> 100 µM
same,TGI,[15],> 100 µM
same,TGI,[16],> 100 µM
same,TGI,[17],> 100 µM
same,TGI,[18],> 100 µM
same,TGI,[19],> 100 µM
same,TGI,[20],> 100 µM
same,TGI,[21],> 100 µM
same,TGI,[22],> 100 µM
same,TGI,[23],> 100 µM
same,TGI,[24],> 100 µM
same,TGI,[25],> 100 µM
same,TGI,[26],> 100 µM
same,TGI,[27],> 100 µM
same,TGI,[28],> 100 µM
same,TGI,[29],> 100 µM
same,TGI,[30],> 100 µM
same,TGI,[31],> 100 µM
same,TGI,[32],> 100 µM
same,TGI,[33],> 100 µM
same,TGI,[34],> 100 µM
same,TGI,[35],> 100 µM
same,TGI,[36],> 100 µM
same,TGI,[37],> 100 µM
same,TGI,[38],> 100 µM
same,TGI,[39],> 100 µM
same,TGI,[40],> 100 µM
same,TGI,[41],> 100 µM
same,TGI,[42],> 100 µM
same,TGI,[43],> 100 µM
same,TGI,[44],> 100 µM
same,TGI,[45],> 100 µM
same,TGI,[46],> 100 µM
same,TGI,[47],> 100 µM
same,TGI,[48],> 100 µM
same,TGI,[49],> 100 µM
same,TGI,[50],> 100 µM
same,TGI,[51],> 100 µM
same,TGI,[52],> 100 µM
same,TGI,[53],> 100 µM
same,TGI,[54],> 100 µM
same,TGI,[55],> 100 µM
COc1ccc(/C=C/C(=O)C(C)C)cc1,TGI,[1],61.4 µM
same,TGI,[2],> 100 µM
same,TGI,[3],> 100 µM
same,TGI,[4],> 100 µM
same,TGI,[5],> 100 µM
same,TGI,[6],> 100 µM
same,TGI,[7],> 100 µM
same,TGI,[8],> 100 µM
same,TGI,[10],> 100 µM
same,TGI,[11],> 100 µM
same,TGI,[12],> 100 µM
same,TGI,[13],> 100 µM
same,TGI,[14],> 100 µM
same,TGI,[15],> 100 µM
same,TGI,[17],> 100 µM
same,TGI,[18],> 100 µM
same,TGI,[19],> 100 µM
same,TGI,[20],> 100 µM
same,TGI,[21],> 100 µM
same,TGI,[22],> 100 µM
same,TGI,[56],> 100 µM
same,TGI,[23],> 100 µM
same,TGI,[24],59.2 µM
same,TGI,[25],> 100 µM
same,TGI,[26],> 100 µM
same,TGI,[27],> 100 µM
same,TGI,[28],98 µM
same,TGI,[29],> 100 µM
same,TGI,[30],> 100 µM
same,TGI,[31],90.6 µM
same,TGI,[32],> 100 µM
same,TGI,[33],> 100 µM
same,TGI,[34],54.9 µM
same,TGI,[35],79.6 µM
same,TGI,[36],> 100 µM
same,TGI,[37],41.7 µM
same,TGI,[38],> 100 µM
same,TGI,[39],> 100 µM
same,TGI,[40],> 100 µM
same,TGI,[41],> 100 µM
same,TGI,[42],> 100 µM
same,TGI,[43],> 100 µM
same,TGI,[44],46.7 µM
same,TGI,[45],> 100 µM
same,TGI,[46],> 100 µM
same,TGI,[48],> 100 µM
same,TGI,[57],> 100 µM
same,TGI,[49],> 100 µM
same,TGI,[50],> 100 µM
same,TGI,[51],> 100 µM
same,TGI,[52],64.3 µM
same,TGI,[53],43 µM
same,TGI,[54],> 100 µM
same,TGI,[55],> 100 µM
same,TGI,[58],73.8 µM
CN(C)C=C1C(=O)N(C)C(=O)N(C)C1=O,TGI,[1],> 100 µM
same,TGI,[3],> 100 µM
same,TGI,[4],> 100 µM
same,TGI,[5],> 100 µM
same,TGI,[6],> 100 µM
same,TGI,[7],> 100 µM
same,TGI,[8],> 100 µM
same,TGI,[9],> 100 µM
same,TGI,[10],> 100 µM
same,TGI,[11],> 100 µM
same,TGI,[12],> 100 µM
same,TGI,[13],> 100 µM
same,TGI,[14],> 100 µM
same,TGI,[15],> 100 µM
same,TGI,[16],> 100 µM
same,TGI,[17],> 100 µM
same,TGI,[18],> 100 µM
same,TGI,[19],> 100 µM
same,TGI,[20],> 100 µM
same,TGI,[21],> 100 µM
same,TGI,[56],> 100 µM
same,TGI,[23],> 100 µM
same,TGI,[24],> 100 µM
same,TGI,[25],> 100 µM
same,TGI,[27],> 100 µM
same,TGI,[28],> 100 µM
same,TGI,[29],> 100 µM
same,TGI,[30],> 100 µM
same,TGI,[32],> 100 µM
same,TGI,[33],> 100 µM
same,TGI,[34],> 100 µM
same,TGI,[35],> 100 µM
same,TGI,[36],> 100 µM
same,TGI,[38],> 100 µM
same,TGI,[39],> 100 µM
same,TGI,[40],> 100 µM
same,TGI,[41],> 100 µM
same,TGI,[42],> 100 µM
same,TGI,[43],> 100 µM
same,TGI,[44],> 100 µM
same,TGI,[45],> 100 µM
same,TGI,[46],> 100 µM
same,TGI,[47],> 100 µM
same,TGI,[48],> 100 µM
same,TGI,[57],> 100 µM
same,TGI,[49],> 100 µM
same,TGI,[50],> 100 µM
same,TGI,[52],> 100 µM
same,TGI,[53],> 100 µM
same,TGI,[54],> 100 µM
same,TGI,[55],> 100 µM
same,TGI,[58],> 100 µM
